Experimental data taken from patent US11034672B1, “Tyrosine kinase inhibitor compositions, methods of making and methods of use” (Black Diamond Therapeutics, Inc., priority 2018, dated 2021).
pIC50: −log10 of the molar value.

Experiments:
Format in all cases: cell-based
EGFR WT [1] = target: T1, EGFR WT (Homo sapiens, UniProt P00533); test: Activity for inhibiting EGFR (Table A), EGFR WT; settings: read-out: EGFR WT, potency code (IC50)
HER2 S310F [2] = target: T2, HER2 S310F (Homo sapiens, UniProt P04626, S310F); test: Activity for inhibiting HER2 (Table B), HER2 S310F; settings: read-out: HER2 S310F, potency code (IC50)
T2 construct: expressed in transfected cells; host or cells: BaF3 (murine pro-B)
Protocol: (§1) EC50 values were determined with the same application.

HER2 S310F [3] = target: T2, HER2 S310F; test: BaF3 cell proliferation assay, HER2 S310F (Table B); settings: potency code, 3 days, CellTiterGlo, read-out: HER2 S310F (Activity for Inhibiting HER2)
EGFR V3 [4] = target: T3, EGFR V3 (Homo sapiens, UniProt P00533, DELINS30-297G); test: Activity for inhibiting EGFR (Table A), EGFR V3 (EGFR-Viii); settings: read-out: EGFR V3, potency code (IC50)
T3 construct: expressed in transfected cells; host or cells: BaF3 (murine pro-B), retroviral pMXs-IRES-Blasticidin

HER2 YVMA [5] = target: T4, HER2 YVMA (Homo sapiens, UniProt P04626, INS775YVMA); test: Activity for inhibiting HER2 (Table B), HER2 YVMA; settings: read-out: HER2 YVMA, potency code (IC50)
T4 construct: expressed in transfected cells; host or cells: BaF3 (murine pro-B)
Protocol: as §1

HER2 YVMA [6] = target: T4, HER2 YVMA; test: BaF3 cell proliferation assay, HER2 YVMA (Table B); settings: potency code, 3 days, CellTiterGlo, read-out: HER2 YVMA (Activity for Inhibiting HER2)
EGFR WT [7] = target: T1, EGFR WT; test: BaF3 cell proliferation assay, EGFR WT (Table A); settings: potency code, 3 days, CellTiterGlo, read-out: EGFR WT (Activity for Inhibiting EGFR)
Outline: (§2)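 EC50 values come from proliferation of IL-3-independent BaF3 lines. These lines were made by two spin infections with retrovirus encoding each mutant, plus polybrene (8 μg/ml). They then underwent one week of 10 μg/ml blasticidin selection and were removed from IL-3.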

EGFR V3 [8] = target: T3, EGFR V3; test: BaF3 cell proliferation assay, EGFR V3 (Table A); settings: potency code, 3 days, CellTiterGlo, read-out: EGFR V3 (Activity for Inhibiting EGFR)
Outline: as §2

T4 sequence (P04626 with tags, fused parts or gaps INS775YVMA): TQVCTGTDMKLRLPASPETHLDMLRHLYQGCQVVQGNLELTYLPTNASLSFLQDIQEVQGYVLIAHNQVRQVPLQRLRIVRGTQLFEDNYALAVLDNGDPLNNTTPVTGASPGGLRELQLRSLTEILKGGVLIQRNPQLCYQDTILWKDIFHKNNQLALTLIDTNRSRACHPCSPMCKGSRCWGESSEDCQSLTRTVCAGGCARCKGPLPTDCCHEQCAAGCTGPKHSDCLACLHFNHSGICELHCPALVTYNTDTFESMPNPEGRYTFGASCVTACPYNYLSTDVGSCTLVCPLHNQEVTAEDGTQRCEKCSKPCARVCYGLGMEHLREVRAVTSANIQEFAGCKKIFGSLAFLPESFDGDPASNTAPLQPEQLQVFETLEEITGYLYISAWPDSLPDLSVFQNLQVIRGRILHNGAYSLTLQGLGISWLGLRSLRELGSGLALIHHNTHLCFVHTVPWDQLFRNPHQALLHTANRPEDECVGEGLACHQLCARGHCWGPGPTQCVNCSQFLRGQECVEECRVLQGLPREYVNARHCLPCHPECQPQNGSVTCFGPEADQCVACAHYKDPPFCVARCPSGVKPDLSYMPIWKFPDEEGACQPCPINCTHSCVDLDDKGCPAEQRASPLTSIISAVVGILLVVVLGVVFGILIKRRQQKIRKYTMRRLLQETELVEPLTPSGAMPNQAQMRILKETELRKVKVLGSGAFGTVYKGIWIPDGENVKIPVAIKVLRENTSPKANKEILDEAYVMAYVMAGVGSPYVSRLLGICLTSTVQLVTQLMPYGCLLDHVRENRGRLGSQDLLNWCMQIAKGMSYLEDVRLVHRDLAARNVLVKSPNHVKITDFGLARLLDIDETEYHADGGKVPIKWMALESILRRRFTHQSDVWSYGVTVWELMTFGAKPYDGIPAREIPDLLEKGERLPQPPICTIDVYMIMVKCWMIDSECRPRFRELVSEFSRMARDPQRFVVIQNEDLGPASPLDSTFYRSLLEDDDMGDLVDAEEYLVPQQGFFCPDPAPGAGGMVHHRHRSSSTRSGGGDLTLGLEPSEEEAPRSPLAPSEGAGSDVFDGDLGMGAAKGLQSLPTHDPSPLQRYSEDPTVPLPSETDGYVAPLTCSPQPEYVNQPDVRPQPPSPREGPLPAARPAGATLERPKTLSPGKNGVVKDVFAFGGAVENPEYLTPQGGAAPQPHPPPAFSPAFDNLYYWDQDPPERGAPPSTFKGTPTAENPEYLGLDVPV
T2 sequence (P04626 23-1255 S310F): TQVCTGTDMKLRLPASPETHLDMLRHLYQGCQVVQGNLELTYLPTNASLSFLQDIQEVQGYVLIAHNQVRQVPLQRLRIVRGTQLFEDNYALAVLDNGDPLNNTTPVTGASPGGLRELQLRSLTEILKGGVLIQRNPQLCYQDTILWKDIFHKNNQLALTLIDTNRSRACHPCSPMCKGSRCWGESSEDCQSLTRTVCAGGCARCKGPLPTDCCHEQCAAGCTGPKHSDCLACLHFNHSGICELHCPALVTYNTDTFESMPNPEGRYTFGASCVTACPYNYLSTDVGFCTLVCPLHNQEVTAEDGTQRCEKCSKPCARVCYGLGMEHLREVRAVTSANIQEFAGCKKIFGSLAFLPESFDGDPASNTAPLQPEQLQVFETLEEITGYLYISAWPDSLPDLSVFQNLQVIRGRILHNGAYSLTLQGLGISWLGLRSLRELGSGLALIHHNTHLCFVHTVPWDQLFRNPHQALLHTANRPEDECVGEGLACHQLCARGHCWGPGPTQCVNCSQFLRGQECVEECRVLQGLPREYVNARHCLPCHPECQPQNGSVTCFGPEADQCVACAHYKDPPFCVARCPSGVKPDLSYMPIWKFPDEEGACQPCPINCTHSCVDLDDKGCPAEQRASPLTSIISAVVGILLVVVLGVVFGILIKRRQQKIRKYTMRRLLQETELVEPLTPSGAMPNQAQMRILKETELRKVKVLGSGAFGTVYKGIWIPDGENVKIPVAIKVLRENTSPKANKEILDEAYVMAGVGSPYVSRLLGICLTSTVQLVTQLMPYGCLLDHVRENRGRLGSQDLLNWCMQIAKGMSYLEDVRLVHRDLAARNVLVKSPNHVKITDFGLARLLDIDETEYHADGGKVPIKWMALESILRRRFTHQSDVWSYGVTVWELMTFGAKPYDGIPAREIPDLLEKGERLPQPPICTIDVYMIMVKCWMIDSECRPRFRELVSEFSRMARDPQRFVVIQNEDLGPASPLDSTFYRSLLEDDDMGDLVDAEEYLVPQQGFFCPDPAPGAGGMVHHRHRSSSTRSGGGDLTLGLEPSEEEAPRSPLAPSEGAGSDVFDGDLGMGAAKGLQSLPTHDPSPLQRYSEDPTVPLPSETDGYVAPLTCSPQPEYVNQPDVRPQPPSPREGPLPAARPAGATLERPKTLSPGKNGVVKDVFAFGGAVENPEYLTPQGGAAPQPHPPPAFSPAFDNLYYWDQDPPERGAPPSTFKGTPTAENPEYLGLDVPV
T1 sequence (P00533 25-1210 N540K): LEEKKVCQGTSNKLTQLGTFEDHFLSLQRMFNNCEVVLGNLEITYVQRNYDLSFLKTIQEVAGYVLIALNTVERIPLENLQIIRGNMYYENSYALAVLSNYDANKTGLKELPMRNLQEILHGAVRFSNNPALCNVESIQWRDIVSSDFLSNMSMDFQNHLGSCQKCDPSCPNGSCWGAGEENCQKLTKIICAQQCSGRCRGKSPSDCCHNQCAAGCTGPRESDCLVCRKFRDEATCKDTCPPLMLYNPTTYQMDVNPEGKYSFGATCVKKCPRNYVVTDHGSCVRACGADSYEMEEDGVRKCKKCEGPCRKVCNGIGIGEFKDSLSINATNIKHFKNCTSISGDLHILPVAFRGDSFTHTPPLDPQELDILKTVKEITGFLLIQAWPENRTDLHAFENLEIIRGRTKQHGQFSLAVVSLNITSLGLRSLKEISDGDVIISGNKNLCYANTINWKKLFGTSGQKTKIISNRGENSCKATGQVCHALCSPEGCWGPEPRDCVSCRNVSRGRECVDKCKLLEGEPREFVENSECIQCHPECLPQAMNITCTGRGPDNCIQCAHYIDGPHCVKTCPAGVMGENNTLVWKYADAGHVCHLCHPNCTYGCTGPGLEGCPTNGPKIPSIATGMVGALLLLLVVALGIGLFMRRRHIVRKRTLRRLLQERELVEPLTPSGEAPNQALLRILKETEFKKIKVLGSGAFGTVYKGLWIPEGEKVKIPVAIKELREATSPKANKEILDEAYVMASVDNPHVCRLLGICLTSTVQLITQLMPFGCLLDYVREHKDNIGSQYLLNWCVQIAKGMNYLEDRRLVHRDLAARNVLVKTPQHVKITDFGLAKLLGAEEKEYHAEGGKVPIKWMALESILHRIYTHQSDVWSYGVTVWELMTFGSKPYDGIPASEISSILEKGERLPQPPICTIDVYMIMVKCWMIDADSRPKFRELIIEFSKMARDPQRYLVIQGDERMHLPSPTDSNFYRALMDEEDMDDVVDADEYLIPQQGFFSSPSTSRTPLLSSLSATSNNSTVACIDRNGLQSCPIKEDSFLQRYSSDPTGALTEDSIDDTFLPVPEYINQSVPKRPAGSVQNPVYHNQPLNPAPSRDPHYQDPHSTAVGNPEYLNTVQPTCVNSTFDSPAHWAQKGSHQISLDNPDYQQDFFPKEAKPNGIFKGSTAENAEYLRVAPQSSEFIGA
T3 sequence (P00533 with tags, fused parts or gaps DELINS30-297G): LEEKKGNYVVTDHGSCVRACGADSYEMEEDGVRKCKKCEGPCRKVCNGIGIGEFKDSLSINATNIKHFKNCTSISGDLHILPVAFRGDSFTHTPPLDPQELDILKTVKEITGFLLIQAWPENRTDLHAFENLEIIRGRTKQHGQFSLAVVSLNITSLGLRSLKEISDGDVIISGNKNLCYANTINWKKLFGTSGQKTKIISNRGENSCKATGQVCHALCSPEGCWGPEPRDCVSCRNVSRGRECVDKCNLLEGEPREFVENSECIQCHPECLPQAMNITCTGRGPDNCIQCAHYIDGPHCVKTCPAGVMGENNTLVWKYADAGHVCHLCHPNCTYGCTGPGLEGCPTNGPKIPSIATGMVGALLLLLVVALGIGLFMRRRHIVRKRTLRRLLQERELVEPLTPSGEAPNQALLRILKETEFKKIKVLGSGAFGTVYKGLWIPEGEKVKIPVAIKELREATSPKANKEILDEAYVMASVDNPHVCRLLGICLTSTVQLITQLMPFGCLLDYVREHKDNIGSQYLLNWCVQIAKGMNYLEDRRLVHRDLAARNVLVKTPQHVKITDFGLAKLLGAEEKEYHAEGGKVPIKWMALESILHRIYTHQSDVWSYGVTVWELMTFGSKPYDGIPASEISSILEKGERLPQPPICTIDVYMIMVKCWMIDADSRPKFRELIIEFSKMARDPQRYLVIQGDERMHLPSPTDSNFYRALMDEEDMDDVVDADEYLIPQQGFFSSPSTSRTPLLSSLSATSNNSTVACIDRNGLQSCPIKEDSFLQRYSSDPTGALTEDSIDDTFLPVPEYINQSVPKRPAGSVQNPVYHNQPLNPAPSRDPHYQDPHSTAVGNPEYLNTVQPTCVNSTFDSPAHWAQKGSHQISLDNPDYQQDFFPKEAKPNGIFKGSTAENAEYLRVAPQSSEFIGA

pIC50 (EGFR WT [1])	pIC50 (HER2 S310F [2])	pIC50 (HER2 S310F [3])	pIC50 (EGFR V3 [4])	pIC50 (HER2 YVMA [5])	pIC50 (HER2 YVMA [6])	pIC50 (EGFR WT [7])	pIC50 (EGFR V3 [8])	Structure (SMILES)
6.70 to 7.00	7.30 to 7.52	7.30 to 7.52	6.70 to 7.00	6.30 to 6.52	6.30 to 6.52	6.70 to 7.00	6.70 to 7.00	C=CC(=O)Nc1cc2c(Nc3ccc(OCc4cccc(F)c4)c(Cl)c3)ncnc2cc1O[C@@H]1CCN(C)C1 [compound 141]
6.30 to 6.52	7.30 to 7.52	7.30 to 7.52	7.30 to 7.52	6.70 to 7.00	6.70 to 7.00	6.30 to 6.52	7.30 to 7.52	C=CC(=O)Nc1cc2c(Nc3ccc(OCc4ccccn4)c(Cl)c3)ncnc2cc1OCCN1CCC(OC)CC1 [compound 114, N-(4-((3-chloro-4-(pyridin-2-ylmethoxy)phenyl)amino)-7-(2-(4-methoxypiperidin-1-yl)ethoxy)quinazolin-6-yl)acrylamide]
6.00 to 6.30	7.30 to 7.52	7.30 to 7.52	7.30 to 7.52	6.52 to 6.70	6.52 to 6.70	6.00 to 6.30	7.30 to 7.52	C=CC(=O)Nc1cc2c(Nc3ccc(OCc4ccccn4)c(Cl)c3)ncnc2cc1OCC1CCN1C (stereo not shown) [compound 116, N-(4-((3-chloro-4-(pyridin-2-ylmethoxy)phenyl)amino)-7-((1-methylazetidin-2-yl)methoxy)quinazolin-6-yl)acrylamide]
6.00 to 6.30	6.30 to 6.52	6.30 to 6.52	7.00 to 7.30	< 6.00	< 6.00	6.00 to 6.30	7.00 to 7.30	C=CC(=O)Nc1cc2c(Nc3ccc(Oc4ccc(Cl)c(F)c4)cc3)ncnc2cc1OCCN1CCOCC1 [compound 127]
6.52 to 6.70	7.52 to 7.70	7.52 to 7.70	6.70 to 7.00	7.00 to 7.30	7.00 to 7.30	6.52 to 6.70	6.70 to 7.00	CC#CC(=O)Nc1cc2c(Nc3cc(Cl)c(OCc4cccc(F)c4)cc3F)ncnc2cc1OCCN1CC2CCC(C1)O2 [compound 148, N-(7-(2-(8-oxa-3-azabicyclo[3.2.1]octan-3-yl)ethoxy)-4-((5-chloro-2-fluoro-4-((3-fluorobenzyl)oxy)phenyl)amino)quinazolin-6-yl)but-2-ynamide]
6.00 to 6.30	7.30 to 7.52	7.30 to 7.52	7.00 to 7.30	6.70 to 7.00	6.70 to 7.00	6.00 to 6.30	7.00 to 7.30	C=CC(=O)Nc1cc2c(Nc3ccc(OCc4ccccn4)c(Cl)c3)ncnc2cc1C#C[C@@H]1[C@H]2CN(C3COC3)C[C@@H]12 [compound 113, N-(4-((3-chloro-4-(pyridin-2-ylmethoxy)phenyl)amino)-7-(((1R,5S,6s)-3-(oxetan-3-yl)-3-azabicyclo[3.1.0]hexan-6-yl)ethynyl)quinazolin-6-yl)acrylamide]
6.00 to 6.30	7.70 to 8.00	7.70 to 8.00	7.30 to 7.52	6.70 to 7.00	6.70 to 7.00	6.00 to 6.30	7.30 to 7.52	C=CC(=O)Nc1cc2c(Nc3ccc(OCc4ccccn4)c(Cl)c3)ncnc2cc1C#CC(C)(C)NC [compound 88, N-(4-((3-chloro-4-(pyridin-2-ylmethoxy)phenyl)amino)-7-(3-methyl-3-(methylamino)but-1-yn-1-yl)quinazolin-6-yl)acrylamide]
6.52 to 6.70	7.00 to 7.30	7.00 to 7.30	7.00 to 7.30	6.30 to 6.52	6.30 to 6.52	6.52 to 6.70	7.00 to 7.30	C=CC(=O)Nc1cc2c(Nc3ccc(OCc4cccc(C)n4)c(Cl)c3)ncnc2cc1OCCN1CCN(C)CC1 [compound 137]
6.52 to 6.70	7.30 to 7.52	7.30 to 7.52	7.52 to 7.70	6.52 to 6.70	6.52 to 6.70	6.52 to 6.70	7.52 to 7.70	C=CC(=O)Nc1cc2c(Nc3ccc(OCc4ccccn4)c(Cl)c3)ncnc2cc1OC1CCN(C)CC1 [compound 110, N-(4-((3-chloro-4-(pyridin-2-ylmethoxy)phenyl)amino)-7-((1-methylpiperidin-4-yl)oxy)quinazolin-6-yl)acrylamide]
< 6.00	7.30 to 7.52	7.30 to 7.52	7.30 to 7.52	6.70 to 7.00	6.70 to 7.00	< 6.00	7.30 to 7.52	C=CC(=O)Nc1cc2c(Nc3ccc(OCc4cnccn4)c(Cl)c3)ncnc2cc1OCCN1CC(OC)C1 [compound 178]
6.70 to 7.00	7.30 to 7.52	7.30 to 7.52	7.00 to 7.30	6.52 to 6.70	6.52 to 6.70	6.70 to 7.00	7.00 to 7.30	C=CC(=O)Nc1cc2c(Nc3cc(Cl)c(OCc4cccc(F)c4)cc3F)ncnc2cc1OCCN1CCN(C)CC1 [compound 145]
< 6.00	7.00 to 7.30	7.00 to 7.30	7.00 to 7.30	6.52 to 6.70	6.52 to 6.70	< 6.00	7.00 to 7.30	C=CC(=O)Nc1cc2c(Nc3ccc(OCc4ccccn4)c(Cl)c3)ncnc2cc1OCC1(N)CC1 [compound 55]
6.30 to 6.52	6.70 to 7.00	6.70 to 7.00	7.00 to 7.30	< 6.00	< 6.00	6.30 to 6.52	7.00 to 7.30	C=CC(=O)Nc1cc2c(Nc3ccc(OCc4ccccn4)cc3)ncnc2cc1OCC1COCCN1 (stereo not shown) [compound 79]
7.00 to 7.30	7.52 to 7.70	7.52 to 7.70	7.00 to 7.30	7.00 to 7.30	7.00 to 7.30	7.00 to 7.30	7.00 to 7.30	CC#CC(=O)Nc1cc2c(Nc3cc(Cl)c(OCc4cccc(F)c4)cc3F)ncnc2cc1OCCN1CCN(C)CC1 [compound 146, N-(4-((5-chloro-2-fluoro-4-((3-fluorobenzyl)oxy)phenyl)amino)-7-(2-(4-methylpiperazin-1-yl)ethoxy)quinazolin-6-yl)but-2-ynamide]
6.00 to 6.30	7.52 to 7.70	7.52 to 7.70	7.30 to 7.52	6.70 to 7.00	6.70 to 7.00	6.00 to 6.30	7.30 to 7.52	C=CC(=O)Nc1cc2c(Nc3ccc(OCc4ccccn4)c(Cl)c3)ncnc2cc1OC[C@H]1COCCN1 [compound 90, N-(4-((3-chloro-4-(pyridin-2-ylmethoxy)phenyl)amino)-7-(morpholin-3-ylmethoxy)quinazolin-6-yl)acrylamide]
7.52 to 7.70	7.30 to 7.52	7.30 to 7.52	7.30 to 7.52	7.30 to 7.52	7.30 to 7.52	7.52 to 7.70	7.30 to 7.52	C=CC(=O)Nc1cc2c(Nc3ccc(Oc4ccc(C)nc4)c(C)c3)ncnc2cc1C#C[C@@H]1[C@H]2CN(C)C[C@@H]12 [compound 104, N-(7-(((1R,5S,6s)-3-methyl-3-azabicyclo[3.1.0]hexan-6-yl)ethynyl)-4-((3-methyl-4-((6-methylpyridin-3-yl)oxy)phenyl)amino)quinazolin-6-yl)acrylamide]
6.30 to 6.52	7.30 to 7.52	7.30 to 7.52	7.30 to 7.52	6.70 to 7.00	6.70 to 7.00	6.30 to 6.52	7.30 to 7.52	C=CC(=O)Nc1cc2c(Nc3ccc(OCc4cccc(F)n4)c(Cl)c3)ncnc2cc1OCCCN1C[C@H]2C[C@@H]1CO2 [compound 162]
